{"source": "patent US12544421B2", "about": "“VDAC inhibitors for treating inflammatory bowel diseases” (THE NATIONAL INSTITUTE FOR BIOTECHNOLOGY IN THE NEGEV LTD., priority 2018, dated 2026)", "key": {"DSS-induced IBD mice [1]": {"tested_on": "DSS-induced IBD mice", "test": "Dextran sodium sulfate (DSS)-induced colitis / IBD mouse model: weight, survival, colon and cecum length, clinical score, spleen weight", "format": "in vivo, C57BL/6 mice", "description": "Healthy female, specific pathogen free (SPF) C57BL/6 (H-2b), 6-7 weeks old mice were obtained from Invigo, Israel. Animal housing and care conditions was maintained according to the experimental protocols approved by the Institutional Animal Care and Use Committee. Mice were weighed and examined for health.\nAnimals were provided ad libitum a commercial rodent diet, and free access to either regular or DSS-containing drinking water for the respective designated test groups, supplied to each cage via polyethylene bottles with stainless steel sipper tubes.\nDextran sodium sulfate (DSS)-induced colitis was used.\nAll animals were subjected to experimental Colitis induction by providing DSS in the drinking water, continuously supplied ad libitum for 6 days, followed subsequently by 8 days of regular drinking water until study termination on day 14 (FIG. 1A).\nDetermination of individual body weights of mice was performed before disease induction and thereafter once daily, starting from study day 0 until the time of scheduled euthanasia of survivors on Day 14.\nAnimals were observed, and clinical signs recorded once daily starting from study day 1 and onwards until the time of scheduled euthanasia. Evaluation of clinical signs was scored according to the grading system listed below.\nImmediately after euthanasia, the entire large intestine from the ileo-caecal junction to the anus were removed, weighed and the length of the colon was measured using a ruler.\nThe Maximal Scores of all mice in each group was be summed, and the MMS calculation was as follows: […]\nThe mean colon length of each group was calculated, and the percentage of shortening of the colon was calculated as follows: […]\nThe mean caecum length of each group was calculated, and the percentage of shortening of caecum was calculated as follows: […]"}, "[2]": {"tested_on": "colon of DSS-induced IBD mice", "test": "Histological sections of colon of DSS-induced IBD mice (H&E, anti-VDAC1 immunostaining)", "format": "in vivo, C57BL/6 mice", "description": "FIGS. 6A-6D are micrographs of histological sections of DSS-induced IBD in C57BL/6 mice, stained with hematoxylin and eosin (H&E). Scale bar represents 100 μm. (6A) Control; (6B) 2.5% DSS; (6C) DSS+VBIT-4; and (6D) DSS+VBIT-12.\nFIGS. 7A-7D are micrographs of histological sections of DSS-induced IBD in C57BL/6 mice highlighting the effects of VBIT-4 and VIBT-12 on the colon wall thickness and lymphatic infiltration thereto. (7A) Control; (7B) 2.5% DSS; (7C) DSS+VBIT-12; and […] DSS+VBIT-4.\nFIGS. 8A-8D are micrographs of histological sections of DSS-induced IBD in C57BL/6 mice, immunostained with an anti VDAC-1 specific antibody. (8A) Control; (8B) 2.5% DSS; (8C) 2.5% DSS+VBIT-4; and (8D) 2.5% DSS+VBIT-12.\nIBD colons were also found to contain large lymphatic sacks and also experienced high infiltration of inflammatory cells towards the colonic lumen."}, "CT-26 cells and MEFs": {"tested_on": "CT-26 cells and MEFs", "test": "H2O2-induced mtDNA release from cells in culture", "format": "cell-based, mouse", "conditions": "20 μM compound, 100 or 200 μM H2O2, 20 h, CT-26 and MEFs", "procedure": "Murine colorectal carcinoma cell line from a BALB/c mouse (CT26) and mouse embryonic fibroblast (MEF) cell lines were grown at 37° C. under an atmosphere of 95% air and 5% CO2 in DMEM supplemented with 10% FBS, 2 mM L-glutamine, 1,000 U/ml penicillin and 1 mg/ml streptomycin.\nCells were seeded (150,000 cells/well) in 6-well culture dishes to 40-60% confluence. After 24 h cells were incubated for 20 h with 100 or 200 μM of H2O2 in the absence or the presence of VBIT-4 and VBIT-12. Cells washed and subjected to mtDNA release as described below. For VDAC1 silencing, CT-26 cells were seeded (150,000 cells/well) in 6-well culture dishes to 40-60% confluence. After 24 h cells were transfected with 75 nM of non-targeting siRNA (si-NT) or siRNA targeting VDAC1 recognizing both human and mouse VDAC1 (si-m/hVDAC1) using the JetPRIME transfection reagent, according to the manufacturers' instructions. Forty-eight (48) h post-transfection with either si-NT or si-m/hVDAC1, cells were incubated for 20 h with 100 μM of H2O2. Cells washed and subject to mtDNA release as described below.\nCells (e.g., CT-26, MFFs) were re-suspended in 170 μl digitonin buffer containing 150 mM NaCl, 50 mM HEPES pH 7.4, and 25 μg/ml digitonin (EMD Millipore Corp). The homogenates are incubated on a rotator for 10 min at room temperature, followed by centrifugation at 16,000 g for 25 min at 4° C. […]"}, "DSS-induced IBD mice [3]": {"tested_on": "DSS-induced IBD mice", "test": "Dextran sodium sulfate (DSS)-induced colitis / IBD mouse model: weight, survival, colon and cecum length, clinical score, spleen weight", "format": "in vivo, C57BL/6 mice", "remark": "listed apart in the source"}, "[4]": {"conditions": "DSS-induced IBD mice, 20 mg/kg, n=6"}, "[5]": {"conditions": "DSS-induced IBD mice, 20 mg/kg, value before the brackets"}, "[6]": {"conditions": "DSS-induced IBD mice, 20 mg/kg, value in brackets"}}}
{"smiles": "O=C(CC(CO)N1CCN(c2ccc(OC(F)(F)F)cc2)CC1)Nc1ccc(Cl)cc1", "note": "(centres unmarked) [VBIT-4, N-(4-chlorophenyl)-4-hydroxy-3-(4-(4-(trifluoromethoxy)phenyl)-piperazin-1-yl)butanamide]", "values": [{"measurement": "% Mortality", "setting": "DSS-induced IBD mice [1]; 2.5% DSS, 20 mg/kg, n=6", "value": 33.3, "unit": "%"}, {"measurement": "died (number of mice)", "setting": "DSS-induced IBD mice [1]; 2.5% DSS, 20 mg/kg, n=6", "value": 2}, {"measurement": "Body weight at experiment termination versus DSS-induced IBD mice (in words)", "setting": "DSS-induced IBD mice [1]; DSS-induced IBD mice", "value": "higher weights"}, {"measurement": "Survival rate at experiment termination versus DSS-induced IBD mice (in words)", "setting": "DSS-induced IBD mice [1]; DSS-induced IBD mice", "value": "increased survival rates"}, {"measurement": "Cecum length, mm", "setting": "DSS-induced IBD mice [1]; [4]", "value": "8.7 ± 2.4", "unit": "mm"}, {"measurement": "MMS (mean maximal score; stool consistency and rectal bleeding, 0-5)", "setting": "DSS-induced IBD mice [1]; [4]", "value": "3.05 ± 0.55"}, {"measurement": "Colon length, mm", "setting": "DSS-induced IBD mice [1]; DSS-induced IBD mice, 20 mg/kg, n=6, at termination", "value": "48.00 ± 4.84", "unit": "mm"}, {"measurement": "Change of weight, day 1 to day 8 (absolute)", "setting": "DSS-induced IBD mice [1]; [5]", "value": "−3.2", "unit": "gr"}, {"measurement": "Change of weight, day 8 to day 15 (absolute)", "setting": "DSS-induced IBD mice [1]; [5]", "value": 1.7, "unit": "gr"}, {"measurement": "Change (%) of weight, day 1 to day 8", "setting": "DSS-induced IBD mice [1]; [6]", "value": "−20.8", "unit": "%"}, {"measurement": "Colon, % Shortening relative to the DSS-induced control (=100)", "setting": "DSS-induced IBD mice [1]; [6]", "value": 73, "unit": "%"}, {"measurement": "Cecum, % Shortening", "setting": "DSS-induced IBD mice [1]; DSS-induced IBD mice, 20 mg/kg, versus naive", "value": 33.1, "unit": "%"}, {"measurement": "Colon, % Shortening", "setting": "DSS-induced IBD mice [1]; DSS-induced IBD mice, 20 mg/kg, versus naive, value before the brackets", "value": 26.2, "unit": "%"}, {"measurement": "Weight (gr) day 1", "setting": "DSS-induced IBD mice [1]; DSS-induced IBD mice, compound 20 mg/kg, day 1", "value": 15.4, "unit": "gr"}, {"measurement": "Weight (gr) day 8", "setting": "DSS-induced IBD mice [1]; DSS-induced IBD mice, compound 20 mg/kg, day 8", "value": 12.2, "unit": "gr"}, {"measurement": "Colon histology: inflammatory cells and infiltration", "setting": "[2]; compared to IBD mice", "value": "fewer inflammatory cells with reduced/no infiltration activity"}, {"measurement": "Colon histology: colon wall thickness / villi", "setting": "[2]; compared to IBD mice and non-IBD control", "value": "thinner colon walls"}, {"measurement": "Release of mtDNA from cells induced by H2O2", "setting": "CT-26 cells and MEFs", "value": "inhibited"}, {"measurement": "Change (%) of weight, day 8 to day 15", "setting": "DSS-induced IBD mice [3]; 20 mg/kg, value in brackets", "value": 13.9, "unit": "%"}, {"measurement": "Weight (gr) day 15", "setting": "DSS-induced IBD mice [3]; compound 20 mg/kg, day 15", "value": 13.9, "unit": "gr"}]}
